# Reference: US20130236619A1, “ANTI-MICROBIAL FOOD PROCESSING COMPOSITIONS INCLUDING CERAGENIN COMPOUNDS AND METHODS OF USE” (Brigham Young University, priority 2012, published 2013)
# Experiments:
# spoilage microorganisms = experiment: Example 1: shelf-life of poultry carcasses dipped in wash composition; settings: wash composition including 100 ppm peracetic acid
# Procedure: A study was performed to determine the effectiveness of an anti-microbial rinse composition including relatively low concentrations of a ceragenin compound in controlling growth of bacteria and extending shelf-life of a poultry food product. Three different wash compositions were prepared. Aqueous wash composition 1 (the control) included no ceragenin compound or other anti-microbial agent. Aqueous wash composition 1 was simply tap water. […] The ceragenin compound employed was CSA-44. Poultry carcasses (chicken carcasses) were dipped (e.g., immersed) for 30 seconds into the given wash composition and mechanically agitated to mimic the action of a finishing chiller used in commercial processing. After the 30 second application time, the carcasses were immediately vacuum packaged and stored in a refrigerator at 4° C. Three carcasses from each treatment were tested every third day beginning at day 0 and ending at day 21 to monitor their associated levels of microorganisms.
# Poultry is considered to be spoiled when it reaches a level of 10^6 Colony Forming Units (“CFUs”)/ml of spoilage microorganisms in the rinsate. The control, i.e., poultry carcasses treated with wash composition 1, reached this limit on day 12. […] By day 18, the poultry carcasses treated with wash composition 2 had exceeded this limit with a value of about 10^6.5 CFUs/ml. […]
# Campylobacter bacteria = experiment: Example 3: Campylobacter inoculated poultry carcasses dipped in wash composition; settings: peracetic acid wash composition
# Procedure: (§1) Example 2 was performed to determine the effectiveness of an anti-microbial wash composition including a ceragenin compound in controlling growth of Salmonella bacteria by fighting off a Salmonella inoculation. Example 3 was similarly performed to determine the effectiveness of the wash composition in controlling growth of Campylobacter bacteria by fighting off a Campylobacter inoculation. Examples 2 and 3 simulate the effectiveness of the present anti-microbial wash compositions to kill Salmonella and Campylobacter on a poultry carcass where the poultry carcass has become contaminated with Salmonella bacteria or Campylobacter bacteria.
# (§2) A total of 15 poultry carcasses (chicken carcasses) were sampled for these tests. The 15 poultry carcasses were divided into five groups of three each. Three carcasses were left untreated to serve as a negative control in order to observe natural levels of bacteria present on the carcass. The remaining 12 carcasses were then inoculated with 1 mL of Salmonella and 1 mL of Campylobacter. The carcasses were allowed to dry for 20 minutes in order for the bacteria to adhere to the surface of the poultry carcasses. One group of three of the inoculated poultry carcasses, designated the positive control, were then rinsed with a wash composition including no anti-microbial agent to determine the level of bacteria after inoculation. […]
# Salmonella bacteria = experiment: Example 2: Salmonella inoculated poultry carcasses dipped in wash composition; settings: peracetic acid wash composition
# Procedure: as §1, §2
compound,measurement,setting,value
CC(=O)OO [peracetic acid],extension of shelf-life relative to a control wash composition,spoilage microorganisms,no extension of shelf-life
same,reduction of the presence of Campylobacter bacteria,Campylobacter bacteria,effective in reducing
same,reduction of the presence of Salmonella bacteria,Salmonella bacteria,effective in reducing
